According to patent publication US10577378B2, “EIF4A-inhibiting compounds and methods related thereto” (eFFECTOR Therapeutics, Inc., priority 2015, dated 2020):

Test system: MDA-MB-231 human breast cancer cells
Test: Cell proliferation assay (CellTiter-Glo, 72 hours treatment)
Type: cell-based
Conditions: Homo sapiens; MDA-MB-231 cells, 72 hours at 37° C., CellTiter-Glo; read-out: MDA-MB-231 cell proliferation assay (IC50)
Description: Human tumor cell lines were cultured in the appropriate media (DMEM and RPMI) supplemented with penicillin G (100 U/ml), streptomycin (100 μg/ml), 10% FBS in a humidified atmosphere of 5% CO2 maintained at 37° C. Exponentially growing cells were seeded at 2,500 cells/well in 96 well plates prior to drug treatment. The following day, cells were treated with either DMSO (vehicle control) or eIF4A inhibitors at the appropriate dose for 72 hours at 37° C. Following compound treatment, cell proliferation was assessed by CellTiter-Glo assay (Promega, Madison Wis.) according to the manufacturer's protocol. Dose-response curves were fitted by non-linear regression (sigmoidal dose response model) using KaleidaGraph (Synergy Software, Reading Pa.) and IC50 values were calculated.
To this end, IC50 values of less than 100 nM are labelled as “+++”, from 100 nM to 1000 nM are labelled as “++”, and greater than 1000 nM are labelled as “+” (NA means “not available”).

| SMILES | IC50 [nM] |
| --- | --- |
| COc1ccc([C@@]23Oc4cc(OC)cnc4[C@]2(O)[C@H](O)[C@H](C(=O)N(C)C)[C@H]3c2ccccc2)cc1 (racemic) [1F, Rac-(5aR,6S,7R,8R,8aS)-8,8a-dihydroxy-3-methoxy-5a-(4-methoxyphenyl)-N,N-dimethyl-6-phenyl-5a,7,8,8a-tetrahydro-6H-cyclopenta[4,5]furo[3,2-b]pyridine-7-carboxamide] | 100 to 1000 |
| CN(C)C(=O)[C@H]1[C@@H](O)[C@@]2(O)c3ccc(C#N)cc3S[C@@]2(c2ccc(C#N)cc2)[C@@H]1c1ccccc1 (racemic) [13F, Rac-(1R,2R,3S,3aR,8bS)-6-cyano-3a-(4-cyanophenyl)-1,8b-dihydroxy-N,N-dimethyl-3-phenyl-2,3,3a,8b-tetrahydro-1H-benzo[b]cyclopenta[d]thiophene-2-carboxamide] | > 1000 |
| CN(C)C(=O)[C@H]1[C@@H](O)[C@@]2(O)c3cnc(C#N)cc3O[C@@]2(c2ccc(C#N)cc2)[C@@H]1c1ccccc1 (racemic) [14F, rac-(5aR,6S,7R,8R,8aS)-3-cyano-5a-(4-cyanophenyl)-8,8a-dihydroxy-N,N-dimethyl-6-phenyl-5a,7,8,8a-tetrahydro-6H-cyclopenta[4,5]furo[3,2-c]pyridine-7-carboxamide] | 100 to 1000 |
| COc1ccc2c(n1)O[C@@]1(c3ccc(C#N)cc3)[C@H](c3ccccc3)[C@@H](C(=O)N(C)C)[C@@H](O)[C@@]21O (racemic) [15F, Rac-(4bS,5R,6R,7S,7aR)-7a-(4-cyanophenyl)-4b,5-dihydroxy-2-methoxy-N,N-dimethyl-7-phenyl-4b,6,7,7a-tetrahydro-5H-cyclopenta[4,5]furo[2,3-b]pyridine-6-carboxamide] | > 1000 |
| COc1nccc2c1[C@]1(O)[C@H](O)[C@H](C(=O)N(C)C)[C@@H](c3ccccc3)[C@]1(c1ccc(C#N)cc1)O2 (racemic) [19F, rac-(5aR,6S,7R,8R,8aS)-5a-(4-cyanophenyl)-8,8a-dihydroxy-1-methoxy-N,N-dimethyl-6-phenyl-5a,7,8,8a-tetrahydro-6H-cyclopenta[4,5]furo[3,2-c]pyridine-7-carboxamide] | 100 to 1000 |
| COC(=O)[C@H]1[C@@H](O)[C@@]2(O)c3nn(C)cc3O[C@@]2(c2ccc(C#N)cc2)[C@@H]1c1ccccc1 (racemic) [21F, Rac-methyl (4aR,5S,6R,7R,7aS)-4a-(4-cyanophenyl)-7,7a-dihydroxy-2-methyl-5-phenyl-2,4a,5,6,7,7a-hexahydrocyclopenta[4,5]furo[3,2-c]pyrazole-6-carboxylate] | > 1000 |
| CN(C)S(=O)(=O)[C@H]1[C@@H](O)[C@@]2(O)c3ncc(Cl)cc3O[C@@]2(c2ccc(C#N)cc2)[C@@H]1c1ccccc1 (racemic) [22F, Rac-(5aR,6S,7R,8S,8aS)-3-chloro-5a-(4-cyanophenyl)-8,8a-dihydroxy-N,N-dimethyl-6-phenyl-5a,7,8,8a-tetrahydro-6H-cyclopenta[4,5]furo[3,2-b]pyridine-7-sulfonamide] | 100 to 1000 |
| COC(=O)[C@@]12C[C@@H]1[C@@]1(O)c3ncc(Cl)cc3O[C@@]1(c1ccc(Br)cc1)[C@@H]2c1ccccc1 (racemic) [24F, rac-methyl (5aR,6R,6aS,7aS,7bR)-5a-(4-bromophenyl)-3-chloro-7b-hydroxy-6-phenyl-5a,7,7a,7b-tetrahydrocyclopropa[4′,5′]cyclopenta[1′,2′:4,5]furo[3,2-b]pyridine-6a(6H)-carboxylate] | > 1000 |
| COC(=O)[C@@]12C[C@@H]1[C@@]1(O)c3ncc(Cl)cc3O[C@@]1(c1ccc(C#N)cc1)[C@@H]2c1ccccc1 (racemic) [25F, Rac-methyl (5aR,6R,6aS,7aS,7bR)-3-chloro-5a-(4-cyanophenyl)-7b-hydroxy-6-phenyl-5a,7,7a,7b-tetrahydrocyclopropa[4′,5′]cyclopenta[1′,2′:4,5]furo[3,2-b]pyridine-6a(6H)-carboxylate] | > 1000 |
| N#Cc1ccc([C@@]23Oc4cc(Cl)cnc4[C@]2(O)[C@H](O)[C@H](c2ncco2)[C@H]3c2ccccc2)cc1 (racemic) [26F, Rac-4-((5aR,6S,7R,8R,8aS)-3-chloro-8,8a-dihydroxy-7-(oxazol-2-yl)-6-phenyl-6,7,8,8a-tetrahydro-5aH-cyclopenta[4,5]furo[3,2-b]pyridin-5a-yl)benzonitrile] | 100 to 1000 |
| N#C[C@H]1[C@@H](O)[C@@]2(O)c3ncc(Cl)cc3O[C@@]2(c2ccc(Br)cc2)[C@@H]1c1ccccc1 (racemic) [27F, rac-(5aR,6S,7S,8R,8aS)-5a-(4-bromophenyl)-3-chloro-8,8a-dihydroxy-6-phenyl-5a,7,8,8a-tetrahydro-6H-cyclopenta[4,5]furo[3,2-b]pyridine-7-carbonitrile] | 100 to 1000 |
| NC(=S)[C@H]1[C@@H](O)[C@@]2(O)c3ncc(Cl)cc3O[C@@]2(c2ccc(Br)cc2)[C@@H]1c1ccccc1 (racemic) [28F, Rac-(5aR,6S,7R,8R,8aS)-5a-(4-bromophenyl)-3-chloro-8,8a-dihydroxy-6-phenyl-5a,7,8,8a-tetrahydro-6H-cyclopenta[4,5]furo[3,2-b]pyridine-7-carbothioamide] | 100 to 1000 |
| CN(C)C(=O)[C@H]1[C@@H](O)[C@@]2(O)c3nc(C(F)(F)F)c(O)cc3O[C@@]2(c2ccc(C#N)cc2)[C@@H]1c1ccccc1 (racemic) [29F, Rac-(5aR,6S,7R,8R,8aS)-5a-(4-cyanophenyl)-3,8,8a-trihydroxy-N,N-dimethyl-6-phenyl-2-(trifluoromethyl)-5a,7,8,8a-tetrahydro-6H-cyclopenta[4,5]furo[3,2-b]pyridine-7-carboxamide] | > 1000 |
| N#Cc1ccc([C@@]23Oc4cc(Cl)cnc4[C@]2(O)[C@H](O)[C@H](CN)[C@H]3c2ccccc2)cc1 (racemic) [30F, rac-4-((5aR,6S,7S,8R,8aS)-7-(aminomethyl)-3-chloro-8,8a-dihydroxy-6-phenyl-6,7,8,8a-tetrahydro-5aH-cyclopenta[4,5]furo[3,2-b]pyridin-5a-yl)benzonitrile] | 100 to 1000 |
| CN(C)C(=O)[C@@]12C[C@@H]1[C@@]1(O)c3ncc(Cl)cc3O[C@@]1(c1ccc(C#N)cc1)[C@@H]2c1ccccc1 (racemic) [31F, Rac-(5aR,6R,6aS,7aS,7bR)-3-chloro-5a-(4-cyanophenyl)-7b-hydroxy-N,N-dimethyl-6-phenyl-5a,7,7a,7b-tetrahydrocyclopropa[4′,5′]cyclopenta[1′,2′:4,5]furo[3,2-b]pyridine-6a(6H)-carboxamide] | > 1000 |
| CN(C)C(=O)[C@H]1C(=O)[C@@]2(O)c3ncc(Cl)cc3O[C@@]2(c2ccc(C#N)cc2)[C@@H]1c1ccccc1 (racemic) [32F, Rac-(5aR,6S,7R,8aR)-3-chloro-5a-(4-cyanophenyl)-8a-hydroxy-N,N-dimethyl-8-oxo-6-phenyl-5a,7,8,8a-tetrahydro-6H-cyclopenta[4,5]furo[3,2-b]pyridine-7-carboxamide] | > 1000 |
| CN(C)C(=O)[C@@H]1[C@@H](c2ccccc2)[C@]2(c3ccc(C#N)cc3)Oc3cc(Cl)cnc3[C@]2(O)[C@]1(C)O (racemic) [33Fa, Rac-(5aR,6S,7R,8R,8aS)-3-chloro-5a-(4-cyanophenyl)-8,8a-dihydroxy-N,N,8-trimethyl-6-phenyl-5a,7,8,8a-tetrahydro-6H-cyclopenta[4,5]furo[3,2-b]pyridine-7-carboxamide] | 100 to 1000 |
| CN(C)C(=O)[C@@H]1[C@@H](c2ccccc2)[C@]2(c3ccc(C#N)cc3)Oc3cc(Cl)cnc3[C@]2(O)[C@@]1(C)O (racemic) [33Fb, Rac-(5aR,6S,7R,8S,8aS)-3-chloro-5a-(4-cyanophenyl)-8,8a-dihydroxy-N,N,8-trimethyl-6-phenyl-5a,7,8,8a-tetrahydro-6H-cyclopenta[4,5]furo[3,2-b]pyridine-7-carboxamide] | > 1000 |
| C=C1C[C@@H](c2ccccc2)[C@]2(c3ccc(Br)cc3)Oc3cc(Cl)cnc3[C@]12O (racemic) [34F, Rac-(5aR,6S,8aR)-5a-(4-bromophenyl)-3-chloro-8-methylene-6-phenyl-5a,6,7,8-tetrahydro-8aH-cyclopenta[4,5]furo[3,2-b]pyridin-8a-ol] | > 1000 |
| COC1=C(C(=O)N(C)C)[C@@H](c2ccccc2)[C@]2(c3ccc(Br)cc3)Oc3cc(Cl)cnc3[C@]12O (racemic) [35F, rac-(5aR,6R,8aS)-5a-(4-bromophenyl)-3-chloro-8a-hydroxy-8-methoxy-N,N-dimethyl-6-phenyl-5a,8a-dihydro-6H-cyclopenta[4,5]furo[3,2-b]pyridine-7-carboxamide] | > 1000 |
| CN(C)C(=O)[C@H]1[C@@H](O)[C@@]2(O)c3nn(C)c(Cl)c3O[C@@]2(c2ccc(C#N)cc2)[C@@H]1c1ccccc1 (racemic) [36F, Rac-(4aR,5S,6R,7R,7aS)-3-chloro-4a-(4-cyanophenyl)-7,7a-dihydroxy-N,N,2-trimethyl-5-phenyl-2,4a,5,6,7,7a-hexahydrocyclopenta[4,5]furo[3,2-c]pyrazole-6-carboxamide] | > 1000 |
| CN(C)C(=O)[C@H]1[C@@H](O)[C@@]2(O)c3nn(C)c(Cl)c3O[C@@]2(c2ccc(Br)cc2)[C@@H]1c1ccccc1 (racemic) [37F, Rac-(4aR,5S,6R,7R,7aS)-4a-(4-bromophenyl)-3-chloro-7,7a-dihydroxy-N,N,2-trimethyl-5-phenyl-2,4a,5,6,7,7a-hexahydrocyclopenta[4,5]furo[3,2-c]pyrazole-6-carboxamide] | > 1000 |
| O[C@]12c3ncc(Cl)cc3O[C@@]1(c1ccc(Br)cc1)[C@H](c1ccccc1)C[C@@]21CCO1 (racemic) [38F, Rac-(5aR,6S,8R,8aS)-5a-(4-bromophenyl)-3-chloro-6-phenyl-6,7-dihydrospiro[cyclopenta[4,5]furo[3,2-b]pyridine-8,2′-oxetan]-8a(5aH)-ol] | > 1000 |
